Read-outs that look alike come from different tables or passages of the source.
What was measured:
Lamium amplexicaule = assay: Broadleaf weed control (JSM 08-5), Lamium amplexicaule; format: in vivo
Description: (§1) Treatments were applied with a CO2 pressurized spray system at a volume of 280 L ha^−1. A four nozzle spray boom utilizing 8002 XR flat fan nozzles (Spraying Systems, Inc, Wheaton, Ill.) on 25 cm spacing and a height of 25 cm was utilized. Spray pressure at the nozzle was 22 PSI and ground speed was 5 km/h. All treatments were applied with 0.25% v/v non-ionic surfactant (X-77 Non-Ionic Surfactant; Helena Chemical Company, Memphis, Tenn.).

Geranium carolinianum = assay: Broadleaf weed control (JSM 08-5), Geranium carolinianum; format: in vivo
Description: as §1

Stellaria media = assay: Broadleaf weed control (JSM 08-5), Stellaria media; format: in vivo
Description: as §1

'Meyer' zoysiagrass [1] = details: in vivo
'Tifway' bermudagrass [2] = details: in vivo
large crabgrass = assay: Large crabgrass control comparison; format: in vivo, Digitaria spp.; details: 1 to 2 tiller growth stage
[3] = system: 'Palmetto' St. Augustinegrass; details: in vivo
'Tifway' bermudagrass [4] = assay: Run one visual turfgrass injury, bermudagrass (JSM 08-4); details: Rate 0.25 kg ai/ha
[5] = system: 'Palmetto' St. Augustinegrass; assay: Run one visual turfgrass injury, St. Augustinegrass (JSM 08-8); details: Rate 0.25 kg ai/ha
'Tifway' bermudagrass [6] = assay: Run two visual turfgrass injury, bermudagrass (JSM 08-14)
'Meyer' zoysiagrass [7] = assay: Run two visual turfgrass injury, zoysiagrass (JSM08-15)
bermudagrass turf [8] = assay: Safening comparison of propoxycarbazone and flucarbazone, bermudagrass injury
[9] = system: 'Palmetto' St. Augustinegrass; assay: Run two visual turfgrass injury, St. Augustinegrass (JSM08-14)
'Meyer' zoysiagrass [10] = assay: Run one visual turfgrass injury, zoysiagrass (JSM08-6); details: Rate 0.25 kg ai/ha
St. Augustinegrass turf = assay: Safening comparison of propoxycarbazone and flucarbazone, St. Augustinegrass injury
St. Augustinegrass = details: in vivo
bermudagrass turf [11] = assay: Tembotrione safening with flucarbazone, bermudagrass injury; parameters: species or system Cynodon dacytlon; details: in vivo
Description: as §1
Tembotrione is a carotenoid biosynthesis inhibiting herbicide that injures bermudagrass. Table 5 refers to research data evaluating the safening of flucarbazone when combined with tembotrione. Tembotrione applied at 0.023 to 0.092 kg/ha injured bermudagrass turf from 30 to 72%; with the greatest injury occurring at 0.092. All tembotrione plus flucarbazone treatments reduced bermudagrass injury when compared to the equivalent rates of tembotrione alone. Tembotrione (at 0.092 kg/ha) plus flucarbazone at 0.015 or 0.029 kg/ha injured bermudagrass 20; however, flucarbazone at 0.059 reduced bermudagrass injury greater to 8%. It is likely that higher rates of flucarbazone will be needed to provide adequate bermudagrass safening as higher rates of tembotrione are applied.

COc1c(Cl)ccc(Cl)c1C(=O)O [Dicamba]
Weed Control 21 DAT Lamium amplexicaule (Lamium amplexicaule; Rate 0.28 kg ai/ha): 10%
Weed Control 21 DAT Geranium carolinianum (Geranium carolinianum; Rate 0.28 kg ai/ha): 73%
Weed Control 21 DAT Stellaria media (Stellaria media; Rate 0.28 kg ai/ha): 65%

COc1nn(C(=O)NS(=O)(=O)c2ccccc2OC(F)(F)F)c(=O)n1C [Flucarbazone, 4,5-dihydro-3-methoxy-4-methyl-5-oxo-N-[2-(trifluoromethoxy)phenylsulfonyl]-1H-1,2,4-triazole-1-carboxamide]
Visual Turfgrass Injury ~13 DAT Zoysiagrass (JSM08-6) ('Meyer' zoysiagrass [1]): 0%
Visual Turfgrass Injury ~20 DAT Zoysiagrass (JSM08-6) ('Meyer' zoysiagrass [1]): 0%
Weed Control 21 DAT Lamium amplexicaule (Lamium amplexicaule; Rate 0.007 kg ai/ha): 3%
Weed Control 21 DAT Lamium amplexicaule (Lamium amplexicaule; Rate 0.029 kg ai/ha): 10%
Visual Turfgrass Injury ~13 DAT Bermudagrass (JSM 08-4) ('Tifway' bermudagrass [2]): 0%
Visual Turfgrass Injury ~20 DAT Bermudagrass (JSM 08-4) ('Tifway' bermudagrass [2]): 0%
Large Crabgrass Control 21 DAT (large crabgrass; Rate 0.009 kg ai/ha): 17%
Large Crabgrass Control 51 DAT (large crabgrass; Rate 0.009 kg ai/ha): 0%
Visual Turfgrass Injury ~13 DAT St. Augustinegrass (JSM 08-8) [3]: 0%
Weed Control 21 DAT Geranium carolinianum (Geranium carolinianum; Rate 0.007 kg ai/ha): 62%
Weed Control 21 DAT Geranium carolinianum (Geranium carolinianum; Rate 0.029 kg ai/ha): 55%
Weed Control 21 DAT Stellaria media (Stellaria media; Rate 0.007 kg ai/ha): 35%
Weed Control 21 DAT Stellaria media (Stellaria media; Rate 0.029 kg ai/ha): 62%

CS(=O)(=O)c1ccc(C(=O)C2C(=O)CCCC2=O)c([N+](=O)[O-])c1 [Mesotrione, 2-(4-methylsulfonyl-2-nitrobenzoyl)cyclohexane-1,3-dione]
Visual Turfgrass Injury ~13 DAT Bermudagrass (JSM 08-4) ('Tifway' bermudagrass [4]): 12%
Visual Turfgrass Injury ~20 DAT Bermudagrass (JSM 08-4) ('Tifway' bermudagrass [4]): 7%
Weed Control 21 DAT Lamium amplexicaule (Lamium amplexicaule; Rate 0.28 kg ai/ha): 100%
Visual Turfgrass Injury ~13 DAT St. Augustinegrass (JSM 08-8) [5]: 5%
Visual Turfgrass Injury ~20 DAT St. Augustinegrass (JSM08-8) [5]: 12%
Visual Turfgrass Injury 7 DAT Bermudagrass (JSM 08-14) ('Tifway' bermudagrass [6]; Rate 0.18 kg ai/ha): 32%
Visual Turfgrass Injury 21 DAT Bermudagrass (JSM 08-14) ('Tifway' bermudagrass [6]; Rate 0.18 kg ai/ha): 23%
Visual Turfgrass Injury 7 DAT Bermudagrass (JSM 08-14) ('Tifway' bermudagrass [6]; Rate 0.28 kg ai/ha): 35%
Visual Turfgrass Injury 21 DAT Bermudagrass (JSM 08-14) ('Tifway' bermudagrass [6]; Rate 0.28 kg ai/ha): 27%
Visual Turfgrass Injury 7 DAT Zoysiagrass (JSM08-15) ('Meyer' zoysiagrass [7]; Rate 0.18 kg ai/ha): 18%
Visual Turfgrass Injury 21 DAT Zoysiagrass (JSM08-15) ('Meyer' zoysiagrass [7]; Rate 0.18 kg ai/ha): 20%
Visual Turfgrass Injury 7 DAT Zoysiagrass (JSM08-15) ('Meyer' zoysiagrass [7]; Rate 0.28 kg ai/ha): 22%
Visual Turfgrass Injury 21 DAT Zoysiagrass (JSM08-15) ('Meyer' zoysiagrass [7]; Rate 0.28 kg ai/ha): 23%
Turfgrass Injury 15 DAT Bermudagrass (bermudagrass turf [8]; Rate 0.42 kg ai/ha): 28%
Large Crabgrass Control 21 DAT (large crabgrass; Rate 0.175 kg ai/ha): 95%
Large Crabgrass Control 51 DAT (large crabgrass; Rate 0.175 kg ai/ha): 78%
Weed Control 21 DAT Geranium carolinianum (Geranium carolinianum; Rate 0.28 kg ai/ha): 20%
Visual Turfgrass Injury 7 DAT St. Augustinegrass (JSM08-14) ([9]; Rate 0.18 kg ai/ha): 38%
Visual Turfgrass Injury 21 DAT St. Augustinegrass (JSM08-14) ([9]; Rate 0.18 kg ai/ha): 32%
Visual Turfgrass Injury 7 DAT St. Augustinegrass (JSM08-14) ([9]; Rate 0.28 kg ai/ha): 40%
Visual Turfgrass Injury 21 DAT St. Augustinegrass (JSM08-14) ([9]; Rate 0.28 kg ai/ha): 33%
Visual Turfgrass Injury ~13 DAT Zoysiagrass (JSM08-6) ('Meyer' zoysiagrass [10]): 30%
Visual Turfgrass Injury ~20 DAT Zoysiagrass (JSM08-6) ('Meyer' zoysiagrass [10]; rated 22 DAT): 0%
Weed Control 21 DAT Stellaria media (Stellaria media; Rate 0.28 kg ai/ha): 100%
Turfgrass Injury 15 DAT St. Augustinegrass (St. Augustinegrass turf; Rate 0.42 kg ai/ha): 35%

CCCOc1nn(C(=O)NS(=O)(=O)c2ccccc2C(=O)OC)c(=O)n1C [Propoxycarbazone, methyl 2-[(4,5-dihydro-4-methyl-5-oxo-3-propoxy-1H-1,2,4-triazole-1-carboxamido)sulfonyl]benzoate]
Turfgrass Injury 15 DAT Bermudagrass (bermudagrass turf [8]; Rate 0.044 kg ai/ha): 0%
Turfgrass Injury 15 DAT Bermudagrass (bermudagrass turf [8]; Rate 0.088 kg ai/ha): 0%
Turfgrass Injury 15 DAT Bermudagrass (bermudagrass turf [8]; Rate 0.177 kg ai/ha): 0%
Turfgrass Injury 15 DAT St. Augustinegrass (St. Augustinegrass turf; Rate 0.044 kg ai/ha): 0%
Turfgrass Injury 15 DAT St. Augustinegrass (St. Augustinegrass turf; Rate 0.088 kg ai/ha): 0%
Turfgrass Injury 15 DAT St. Augustinegrass (St. Augustinegrass turf; Rate 0.177 kg ai/ha): 0%

CS(=O)(=O)c1ccc(C(=O)C2C(=O)CCCC2=O)c(Cl)c1COCC(F)(F)F [Tembotrione, 2-{2-chloro-4-mesyl-3-[(2,2,2-trifluoroethoxy)methyl]benzoyl}cyclohexane-1,3-dione]
St. Augustinegrass injury (St. Augustinegrass): no injury was observed
Bermudagrass Injury 23 DAT (bermudagrass turf [11]): 0%
bermudagrass turf injury (bermudagrass turf [11]): 30-72%

Reference: patent US20090215625A1, “Combinations of Herbicides and Safeners” (priority 2008, published 2009)
